Reference: patent publication US20160058775A1, “COMPOSITION AND FORMULATION OF ANTIMICROBIAL AGENTS, PROCESSES THEREOF AND METHODS FOR TREATING MICROBIAL INFECTIONS” (VYOME BIOSCIENCES PVT. LTD., priority 2013, published 2016)
Where two headings read alike, the source gives them in different places.

System: M. furfur
Source text: The time-kill assays were used to evaluate efficacy of antimicrobial agents, either singly or in combination, and the results can help in establishing the dose and/or time of application of the active. The time-kill assays were used to study both concentration-dependent and time-dependent antimicrobial action.
M. furfur cells were suspended in Sabouraud Dextrose Broth (SDB) at inoculum concentration of 7×10^7 cells/ml. Cells were taken from a freshly growing (3-7 days old) plate and cell suspension was vortexed to remove the cell clumps as much as possible. Sterile media were supplemented with chloramphenicol (0.25 mg/ml), cycloheximide (0.04 mg/ml) and olive oil (2%). The media were then supplemented with appropriate concentrations (two-fold serial dilutions using SDB) of unmodified zinc pyrithione API (10 μg/ml and 50 μg/ml) with different concentrations of Capmul 908-P (0%, 1%, 3%, 5% & 9%). The cultures were incubated on a tube rotator at 34° C. in CO2 incubator.
To measure the colony forming units (CFU), at different time points, aliquots (50 μl) of Malassezia cultures were serially diluted with SDBT medium (SDB containing 0.1% Triton X-100) and plated on SDA plates. The plates are incubated at 34° C. in CO2 incubator for 3 days. The viable colonies were counted and converted to CFU/ml.

zinc pyrithione [ZPT]
Log CFU Count of M. furfur (ZPT 10 μg/ml, Capmul 908-P 30 μg/ml, 6 hrs): 6.50
Log CFU Count of M. furfur (ZPT 10 μg/ml, Capmul 908-P 30 μg/ml, 24 hrs): 5.94
Log CFU Count of M. furfur (ZPT 10 μg/ml, Capmul 908-P 30 μg/ml, 48 hrs): 5.06
Log CFU Count of M. furfur (ZPT 10 μg/ml, Capmul 908-P 50 μg/ml, 6 hrs): 6.37
Log CFU Count of M. furfur (ZPT 10 μg/ml, Capmul 908-P 50 μg/ml, 24 hrs): 5.57
Log CFU Count of M. furfur (ZPT 10 μg/ml, Capmul 908-P 50 μg/ml, 48 hrs): 4.80
Log CFU Count of M. furfur (ZPT 10 μg/ml, Capmul 908-P 90 μg/ml, 6 hrs): 6.33
Log CFU Count of M. furfur (ZPT 10 μg/ml, Capmul 908-P 90 μg/ml, 24 hrs): 5.55
Log CFU Count of M. furfur (ZPT 10 μg/ml, Capmul 908-P 90 μg/ml, 48 hrs): 4.77
Log CFU Count of M. furfur (ZPT 10 μg/ml, Capmul 908-P nil, 6 hrs): 6.56
Log CFU Count of M. furfur (ZPT 10 μg/ml, Capmul 908-P nil, 24 hrs): 6.13
Log CFU Count of M. furfur (ZPT 10 μg/ml, Capmul 908-P nil, 48 hrs): 5.27
Log CFU Count of M. furfur (ZPT 50 μg/ml, Capmul 908-P 30 μg/ml, 6 h): 6.06
Log CFU Count of M. furfur (ZPT 50 μg/ml, Capmul 908-P 30 μg/ml, 24 h): 4.69
Log CFU Count of M. furfur (ZPT 50 μg/ml, Capmul 908-P 30 μg/ml, 48 h): 3.25
Log CFU Count of M. furfur (ZPT 50 μg/ml, Capmul 908-P 50 μg/ml, 6 h): 5.94
Log CFU Count of M. furfur (ZPT 50 μg/ml, Capmul 908-P 50 μg/ml, 24 h): 4.62
Log CFU Count of M. furfur (ZPT 50 μg/ml, Capmul 908-P 50 μg/ml, 48 h): 3.04
Log CFU Count of M. furfur (ZPT 50 μg/ml, Capmul 908-P 90 μg/ml, 6 h): 5.52
Log CFU Count of M. furfur (ZPT 50 μg/ml, Capmul 908-P 90 μg/ml, 24 h): 3.63
Log CFU Count of M. furfur (ZPT 50 μg/ml, Capmul 908-P 90 μg/ml, 48 h): 2.08
Log CFU Count of M. furfur (ZPT 50 μg/ml, Capmul 908-P nil, 6 h): 6.43
Log CFU Count of M. furfur (ZPT 50 μg/ml, Capmul 908-P nil, 24 h): 5.39
Log CFU Count of M. furfur (ZPT 50 μg/ml, Capmul 908-P nil, 48 h): 3.92
Anti-microbial activity towards M. furfur with increasing concentration of propylene glycol monocaprylate (Capmul 908-P) (time-kill, Tables 12 and 13): gets potentiated
